Results as given in patent publication US7335817B2, “Canola line 45H25” (Pioneer Hi-Bred International, Inc., priority 2005, dated 2008).
Entries after “also recorded” stand apart in the source; their conditions may differ.

Test system: Canola Variety 45H25
Experiment: Herbicide resistance of canola variety 45H25 at standard recommended application rates
Format: in vivo, Brassica napus
Conditions: for Herbicide resistance (Description): response of variety 45H25 to the herbicide, in words; for Herbicide resistance rating (Mean): scale 0 = not tested, 1 = resistant, variety 45H25
Description: When preparing the detailed phenotypic information that follows, plants of the new 45H25 variety were observed while growing using conventional agronomic practices. For comparative purposes canola plants of four publicly available canola lines were similarly grown in a three-replication experiment. Based on observations recorded on various morphological traits for the variety 45H25 and comparative check cultivars, variety 45H25 can be described as follow: […]

Row | SMILES | Herbicide resistance (Description) | Herbicide resistance rating (Mean) (5 = tolerant, 9 = susceptible) | Herbicide resistance (Description) (listed as glyphosate) | Herbicide resistance rating (Mean) (2 = tolerant, 3 = susceptible)
1 | CP(=O)(O)CCC(N)C(=O)O (centres unmarked) [Glufosinate] | susceptible | 9.00 |  | 
2 | O=C(O)CNCP(=O)(O)O [Glyphosate] | resistant |  | resistance; also recorded: resistant | 1.00
